Experiments:
[1] = test system: DJ-1 RNAi depleted HeLa cells; settings: cited from earlier work
HeLa cells = assay: Intracellular calcium, Fluo4-AM loaded HeLa cells, fluorescent plate reader; type: cell-based; settings: FIG. 12
Source text: HeLa cells were loaded with Fluo4-AM and fluorescence was monitored with the help of a fluorescent plate reader. Values are normalized to the initial fluorescent value.

dopaminergic neurons [2] = settings: cited from earlier work
[3] = test system: djr1.1/djr1.2 and glod-4 KO C. elegans; assay: Embryonic lethality in C. elegans (percentage of hatched eggs); type: in vivo; settings: worms fed with substance, FIG. 18
Procedure: All C. elegans strains were maintained on NGM agar plates seeded with Escherichia coli NA22 at 15° C.

[4] = test system: HeLa cells treated with siRNA against PARK-7/DJ-1; assay: Calcium imaging on HeLa cells during mitosis after PARK-7/DJ-1 down-regulation; type: cell-based; settings: PARK-7/DJ-1 down-regulated HeLa cells, 5 mM, FIG. 17
Procedure: HeLa cells were loaded with Fluo-4 AM, a dye used to measure calcium concentration in living cells, as described by the manufacturer and recorded for 4 hours. Graphics show the variations in intracellular calcium concentration during mitosis in WT and cells treated with siRNA against PARK-7/DJ-1 to down-regulate this gene.
HeLa-Kyoto cells stably expressing histone H2B-mCherry and mouse DJ-1 were used. Cells were maintained in DMEM supplemented with 10% fetal bovine serum (FBS), 2 mM GlutaMAX, 100 unit/ml penicillin, 100 μg/ml streptomycin. For esiRNA treatment, cells were plated at a density of 15.000 cells/well in an ibidi 8 well chamber (Cat. no 80826, ibidi, Germany, EU), transfected with different esiRNAs (RLUC as empty vector, hPARK-7 and hKIF11 as positive control) (all esiRNAs were obtained from Eupheria, Germany, EU), and left for 72 hours before performing calcium imaging. esiRNA transfection was performed as follows. esiRNA was diluted in distilled water to a concentration of 20 ng/μl. For each well, two solutions were made: 1. […]
We observed that the Fluo-4 AM dye started to leak out of the cells into the medium after 1.5 hours of imaging. […] Images were analyzed using FIJI Image Analysis Freeware (https://fiji.sc). MFI of the Fluo-4 AM signal within the cell was determined using manually selected ROIs covering the whole cell area for each time-point. […]

[5] = human, in vivo
Source text: Potential side effects were closely monitored.

dopaminergic neurons [6] = assay: Survival of dopaminergic neurons with paraquat 25 μM challenge (Example 1, FIG. 1); type: cell-based, mouse
Procedure: (§1) Dopaminergic neurons were isolated and plated at a concentration of 1.000.000 cells/ml (100 μl/well) in a 96 well plate and cultured in medium with one or more of the various factors indicated, as described in the examples below. The survival of dopaminergic neurons in the presence and absence of various agents of the invention, either with or without paraquat challenge, is shown by the number of TH positive neurons normalized to the control treatment.
Dopaminergic neurons were isolated and plated at a concentration of 1.000.000 cells/ml (100 μl/well) in a 96 well plate. After 3-4 hours incubation at 37° C., 20 μl of medium was removed from each well. (VF=80 μl). Changes in medium and start point of the treatment were done in the following day in vitro (DIV). The following protocol was employed in order to assess the survival of dopaminergic neurons in the presence and absence of various agents of the invention combination, either with or without paraquat challenge. • DIV.1: Change half of medium N2 (40 μl) with fresh medium N2. • DIV.3: Change half of the medium and start with medium (control) or with medium A containing LA (different concentrations) and/or GA (normally 5 mM or 10 mM). Medium A is N2 medium but without FBS and N2-Supplement. • DIV.5: Second round of control or treatment with LA and/or GA. Half of the medium (40 μl) was replaced by fresh medium A with the different agents. • DIV.7: Paraquat 25 μM treatment starts with or without GA and L-alanine. Half of the medium (40 μl) was replaced by fresh medium A with the different treatment combinations or without (control). • DIV.9: Second day of treatment with Paraquat (PQ) 25 μM in addition to the other substances (LA and GA). • DIV.10: Fixation 2% of PFA during 20 min at 37° C. or overnight at 4° C.
Primary mesencephalic neuronal cell cultures were prepared as previously described. Briefly, E14.5 embryos were obtained from C57JBL6 pregnant mice after cervical dislocation. Brain mesencephali were dissected under the microscope and digested with Trypsin-EDTA 0.12% (Life Technologies, USA) for 7 min. The trypsin reaction was then stopped by adding basic medium (BM), containing Neurobasal A medium (Gibco, USA), 1 mg/mL Pen/Strep, 10% FCS, and […] L-Glutamine, and cells were mechanically dissociated using a fire-polished Pasteur pipette. Medium was fully replaced after 5 min, centrifugation at 1200 rpm, aspiring the supernatant and adding 8 mL of fresh BM to the pellet. Concentration of cells in the medium was estimated using a Neubauer chamber and a 100 μL of medium containing 10^6 cells/mL plated per well in a 96-well plate (Greiner Sensoplate, Germany, EU). Then a 20 μL of medium was removed from the well and 24 h later, ⅓ of the media was replaced with fresh BM. […]

dopaminergic neurons [7] = assay: Survival of dopaminergic neurons with paraquat 12.5 μM challenge (Example 5, FIGS. 19, 20); type: cell-based, mouse
Procedure: as §1
Dopaminergic neurons were isolated and plated at a concentration of 1.000.000 cells/ml (100 μl/well) in a 96 well plate. After 3-4 hours incubation at 37° C., 20 μl of medium was removed from each well. (VF=80 μl). Changes in medium and start point of the treatment were on the following day in vitro (DIV). The following protocol was employed to assess the survival of dopaminergic neurons in the presence and absence of various agents of the inventive combination, either with or without paraquat challenge. • DIV.1: Change half of medium N2 (40 μl) with fresh medium N2. • DIV.3: Change half of the medium and start with medium (control) or with medium A containing PB (0.15 mM) and TUDCA (0.5 mM), or with Medium A containing GA (normally 1 mM, 3 mM, or 10 mM) or with Medium A containing GA (1 mM or 3 mM) and PB (0.15 mM) or with Medium A containing GA (5 mM) and TUDCA (0.5 mM) or with Medium A containing PB (0.15 mM). Medium A is N2 medium but without FBS and N2-Supplement. • DIV.5: Second round of control or treatment with different treatments. Half of the medium (40 μl) was replaced by fresh medium A with the different agents. • DIV.7: Paraquat 12.5 μM treatment starts alone or in combination with the treatments explained above. Half of the medium (40 μl) was replaced by fresh medium A with the different treatment combinations or without (control). • DIV.9: Second day of treatment with Paraquat (PQ) 12.5 μM in addition to the other treatments as explained above. • DIV.11: Fixation 2% of PFA during 20 min at 37° C. or overnight at 4° C.
The effect of the different treatments on dopaminergic neurons survival upon exposure to paraquat was assessed through of TH+ neurons after treatment. Briefly, neurons were fixed using 2% paraformaldehyde for immunocytochemical analysis after treatment. Dopaminergic TH^+ neurons per well were identified and counted using an inverted fluorescence microscope (Olympus) under a 20× objective.

[8] = estimated; cited from earlier work
[9] = 5 g tablet or powder by mouth; cited from earlier work

Compound: C[C@@H](O)C(=O)O [DL, D-(−)-lactic acid]
- mitochondrial potential [1]: maintain or rescue mitochondrial potential
- intracellular calcium (Fluo4-AM fluorescence normalized to initial value) (HeLa cells): reduce intracellular calcium
- survival of dopaminergic neurons (dopaminergic neurons [2]): rescued the survival of dopaminergic neurons
- embryonic lethality (percentage of hatched eggs) [3]: rescue of embryonic lethality
- calcium influx during mitosis [4]: able to rescue this phenotype

Compound: C[C@H](N)C(=O)O [LA, L-Alanine]
- prevention of kidney damage or stones, renal or liver disfunction [5]: sufficient to prevent any kidney damage or stones
- side effects / function of the kidney or liver [5]: avoid any unwanted side effects or reductions in function of the kidney or liver
- survival of dopaminergic neurons (rescue) (dopaminergic neurons [6]; 0.01 mM LA alone with PQ 25 μM): no rescue

Compound: O=C(O)CCCc1ccccc1 [PB, 4-Phenylbutyric acid, reference compound]
- number of TH positive neurons normalized to the control treatment (dopaminergic neurons [7]; PQ 12.5 μM + 0.15 mM PB, FIG. 19): 0.72

Compound: C[n+]1ccc(-c2cc[n+](C)cc2)cc1 [PQ, Paraquat, reference compound]
- number of TH positive neurons normalized to the control treatment (dopaminergic neurons [7]; PQ 12.5 μM alone, FIG. 19): 0.58
- number of TH positive neurons normalized to the control treatment (dopaminergic neurons [7]; PQ 12.5 μM alone, FIG. 20): 0.44
- survival of dopaminergic neurons (number of TH positive neurons normalized to the control treatment) (dopaminergic neurons [6]; PQ 25 μM alone): severe reduction in neuron survival

Compound: OCCOCCO [diethylene glycol]
- minimum toxic dose [8]: 0.14 mg glycolic acid per kg of body weight

Compound: sodium phenylbutyrate
- time to metabolism into phenylacetate [9]: within half an hour
- time to peak concentration in the bloodstream [9]: within an hour
- time until detected in the blood [9]: ≤ 15 min
